The record followed here is ChEMBL document CHEMBL4184248, “A multicomponent approach in the discovery of indoleamine 2,3-dioxygenase 1 inhibitors: Synthesis, biological investigation and docking studies” (Bioorg Med Chem Lett, 2018).

Test [1] relates to A-375. The test is described as follows: Cytotoxicity in human A375 cells assessed as cell viability at 10 uM incubated for 48 hrs by MTT assay. It is filed as functional. To be noted: A-375, 48 h, read-out: Activity.
Test [2] addresses T1, Indoleamine 2,3-dioxygenase 1 (Homo sapiens, UniProt P14902). Description: Inhibition of human recombinant IDO1 assessed as reduction in kynurenine production at 1 uM using L-tryptophan incubated for 60 mins by Ehrlich's reagent based assay.
Target sequence in this assay (P14902 whole entry, looked up): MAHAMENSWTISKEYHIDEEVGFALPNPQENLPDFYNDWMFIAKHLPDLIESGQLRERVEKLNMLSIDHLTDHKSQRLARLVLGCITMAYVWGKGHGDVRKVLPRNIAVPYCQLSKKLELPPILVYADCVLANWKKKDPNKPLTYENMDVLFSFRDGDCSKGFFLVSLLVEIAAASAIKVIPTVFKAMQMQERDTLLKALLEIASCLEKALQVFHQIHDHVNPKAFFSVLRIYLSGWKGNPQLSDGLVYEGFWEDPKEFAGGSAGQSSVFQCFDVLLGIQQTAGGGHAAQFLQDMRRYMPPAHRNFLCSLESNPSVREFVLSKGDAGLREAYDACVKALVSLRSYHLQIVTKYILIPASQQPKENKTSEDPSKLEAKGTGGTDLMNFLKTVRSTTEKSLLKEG
The target in test [3] is T1, Indoleamine 2,3-dioxygenase 1. The test is described as follows: Inhibition of human recombinant IDO1 assessed as reduction in kynurenine production using L-tryptophan incubated for 60 mins by Ehrlich's reagent based assay.
Target sequence in this assay (P14902 whole entry): as the sequence (P14902 whole entry, looked up) above

pIC50: −log10 of the molar value.

With `COc1cccc(C(=O)N(C)CC(=O)NCc2cnc3scc(-c4ccc(Br)cc4)n23)c1`, in test [1], the viability at 10 µM was 98%. In addition, the inhibition (commonly the change of the read-out against control, counted positive when it falls) in test [2] came to 48%.
The like results for `CN(CC(=O)NCc1cnc2scc(-c3ccc(Br)cc3)n12)C(=O)Cc1ccc(O)c(O)c1` were, in that order, 99% and 34%.
For the compound `N#Cc1ccc(CC(=O)OCC(=O)NCc2cnc3scc(-c4ccc(Br)cc4)n23)cc1`, the viability at 10 µM in test [1] came to 100%. Besides, in test [2], the inhibition was determined as 69%. The pIC50 – broadly, −log10 of the IC50, conventionally taken in molar units – in test [3] is 6.47.
On to `O=C(CNC(=O)Cc1ccccc1)NCc1cnc2scc(-c3ccc(Br)cc3)n12`, for which, in test [1], the viability at 10 µM came out at 100%. Also, the inhibition in test [2] amounted to 46%.
With `CN(CC(=O)NCc1cnc2scc(-c3ccc(Br)cc3)n12)C(=O)Cc1ccccc1`, the viability at 10 µM in test [1] came out at 100%. The inhibition in test [2] came out at 62%. Besides, the pIC50 in test [3] was 6.16.
Take `CN(CC(=O)NCc1cnc2scc(-c3ccc(Br)cc3)n12)C(=O)c1ccccc1`: the viability at 10 µM in test [1] was found to be 96%. Further, the inhibition in test [2] was found to be 50%.
Regarding `COc1ccc(C(=O)N(C)CC(=O)NCc2cnc3scc(-c4ccc(Br)cc4)n23)cc1`, the viability at 10 µM in test [1] was found to be 82%. Moreover, in test [2], the inhibition was 49%.
For `NS(=O)(=O)NCCNc1nonc1/C(=N/O)Nc1ccc(F)c(Br)c1` [EPACADOSTAT], the viability at 10 µM in test [1] was found to be 100%.
For the compound `CN(CC(=O)NCc1cnc2scc(-c3ccc(Br)cc3)n12)C(=O)Cc1ccc(Cl)cc1`, the viability at 10 µM in test [1] was 64%. Besides, the inhibition in test [2] turned out to be 51%.
The like results for `O=C(COC(=O)Cc1ccc([N+](=O)[O-])cc1)NCc1cnc2scc(-c3ccc(Br)cc3)n12` were, in that order, 100% and 39%.
Taken in the same sequence, the figures for `CN(CC(=O)NCc1cnc2scc(-c3ccc(Br)cc3)n12)C(=O)Cc1cccc(Cl)c1` were 83% and 39%.
On to `CN(CC(=O)NCc1cnc2scc(-c3ccc(Br)cc3)n12)C(=O)Cc1ccccc1[N+](=O)[O-]`, for which the viability at 10 µM in test [1] was 92%. In test [2], the inhibition worked out at 67%. Also, the pIC50 in test [3] was 6.14.
As to `CN(CC(=O)NCc1cnc2scc(-c3ccc(Br)cc3)n12)C(=O)Cc1ccccc1O`, the viability at 10 µM in test [1] is 88%. In test [2], the inhibition worked out at 0%.
With `O=C(CO)NCc1cnc2scc(-c3ccc(Br)cc3)n12`, the viability at 10 µM in test [1] was 97%. Further, in test [2], the inhibition worked out at 48%.
Taken in the same sequence, the figures for `CN(CC(=O)NCc1cnc2scc(-c3ccc(Br)cc3)n12)C(=O)Cc1ccc(C#N)cc1` were 92% and 18%.
In the case of `CN(CC(=O)NCc1cnc2scc(-c3ccc(Br)cc3)n12)C(=O)c1ccc([N+](=O)[O-])cc1`, in test [1], the viability at 10 µM is 100%. In test [2], the inhibition amounted to 45%.
For the compound `Cn1cc(C[C@H](N)C(=O)O)c2ccccc21` [(L)-1-METHYLTRYPTOPHAN], in test [1], the viability at 10 µM was determined as 100%.
As to `N[C@H](C(=O)NCC(=O)NCc1cnc2scc(-c3ccc(Br)cc3)n12)c1ccc(O)cc1`, the viability at 10 µM in test [1] was 100%. Further, the inhibition in test [2] is 0%.
The like results for `CN(CC(=O)NCc1cnc2scc(-c3ccc(Br)cc3)n12)C(=O)c1ccc(C#N)cc1` were, in that order, 87% and 47%.
Regarding `N[C@H](C(=O)NCC(=O)NCc1cnc2scc(-c3ccc(Br)cc3)n12)c1ccccc1`, the viability at 10 µM in test [1] was found to be 96%. Also, in test [2], the inhibition is 10%.
Take `CN(CC(=O)NCc1cnc2scc(-c3ccc(Br)cc3)n12)C(=O)Cc1cccc(C#N)c1`: the viability at 10 µM in test [1] stood at 90%. In addition, the inhibition in test [2] was 0%.
As for `O=C(COC(=O)Cc1cccc(Cl)c1)NCc1cnc2scc(-c3ccc(Br)cc3)n12`, the viability at 10 µM in test [1] turned out to be 100%. For the same compound, the inhibition in test [2] turned out to be 39%.
For `N#Cc1cccc(CC(=O)OCC(=O)NCc2cnc3scc(-c4ccc(Br)cc4)n23)c1`, in test [1], the viability at 10 µM worked out at 97%. Besides, in test [2], the inhibition turned out to be 29%.
For `O=C(COC(=O)Cc1ccccc1Cl)NCc1cnc2scc(-c3ccc(Br)cc3)n12`, in test [1], the viability at 10 µM came to 100%. Also, the inhibition in test [2] came to 46%.
Regarding `O=C(COC(=O)Cc1ccccc1O)NCc1cnc2scc(-c3ccc(Br)cc3)n12`, the viability at 10 µM in test [1] stood at 100%. Moreover, in test [2], the inhibition was determined as 73%. Besides, in test [3], the negative-log IC50 (pIC50) was 6.06.
For the compound `CN(CC(=O)NCc1cnc2scc(-c3ccc(Br)cc3)n12)C(=O)Cc1ccc(O)cc1`, the viability at 10 µM in test [1] was found to be 91%. The inhibition in test [2] was 55%.
The like results for `O=C(COC(=O)Cc1ccc(Cl)cc1)NCc1cnc2scc(-c3ccc(Br)cc3)n12` were, in that order, 100% and 32%.
As to `CN(CC(=O)NCc1cnc2scc(-c3ccc(Br)cc3)n12)C(=O)Cc1cccc(O)c1`, in test [1], the viability at 10 µM turned out to be 100%. The inhibition in test [2] is 63%. Besides, in test [3], the pIC50 was 6.35.
Taken in the same sequence, the figures for `CN(CC(=O)NCc1cnc2scc(-c3ccc(Br)cc3)n12)C(=O)Cc1ccc([N+](=O)[O-])cc1` were 100%, 66% and 6.09.
As for `O=C(COC(=O)Cc1cccc(O)c1)NCc1cnc2scc(-c3ccc(Br)cc3)n12`, in test [1], the viability at 10 µM turned out to be 100%. The inhibition in test [2] worked out at 59%.
The like results for `O=C(COC(=O)Cc1cccc([N+](=O)[O-])c1)NCc1cnc2scc(-c3ccc(Br)cc3)n12` were, in that order, 100% and 50%.
For the compound `CN(CC(=O)NCc1cnc2scc(-c3ccc(Br)cc3)n12)C(=O)Cc1cccc([N+](=O)[O-])c1`, the viability at 10 µM in test [1] amounted to 93%. In addition, the inhibition in test [2] is 65%. In addition, the pIC50 in test [3] was 6.20.
With `CC(=O)N(C)CC(=O)NCc1cnc2scc(-c3ccc(Br)cc3)n12`, in test [1], the viability at 10 µM was found to be 98%. In test [2], the inhibition is 21%.
Turning to `N#Cc1ccc(NC(=O)NCc2cnc3scc(-c4ccc(Br)cc4)n23)cc1`, in test [1], the viability at 10 µM came out at 99%. In test [2], the inhibition amounted to 97%. Besides, the pIC50 in test [3] was 7.10.
Take `O=C(COC(=O)Cc1ccc(O)c(O)c1)NCc1cnc2scc(-c3ccc(Br)cc3)n12`: in test [1], the viability at 10 µM was 99%. In test [2], the inhibition was determined as 40%.
Take `CN(CC(=O)NCc1cnc2scc(-c3ccc(Br)cc3)n12)C(=O)Cc1ccccc1Cl`: in test [1], the viability at 10 µM was determined as 71%. In addition, the inhibition in test [2] was 41%.
Turning to `O=C(COC(=O)Cc1ccc(O)cc1)NCc1cnc2scc(-c3ccc(Br)cc3)n12`, the viability at 10 µM in test [1] was 100%. The inhibition in test [2] was 89%. In test [3], the negative logarithm of the IC50 (pIC50) was 6.70.
As to `O=C(COC(=O)Cc1ccccc1[N+](=O)[O-])NCc1cnc2scc(-c3ccc(Br)cc3)n12`, the viability at 10 µM in test [1] was 100%. For the same compound, in test [2], the inhibition stood at 41%.
Regarding `O=C(COC(=O)Cc1ccccc1)NCc1cnc2scc(-c3ccc(Br)cc3)n12`, the viability at 10 µM in test [1] was determined as 98%. In addition, the inhibition in test [2] was 72%. Also, the negative-log IC50 (pIC50) in test [3] was 6.24.
